The subject of assay [1] is primary T-ALL patient samples. The assay can be described thus: Apoptosis of primary T-ALL patient samples. Type of assay: cell-based, human.
Assay [2] concerns MCF10A-5E cells. The assay can be described thus: Multiacini formation in 3D culture of MCF10A-5E cells. Type of assay: cell-based. Particulars: shRUNX1 or control cells, 3D culture 10-11 days, compared to carrier control or Al-4-88. An excerpt:
CBFβ inhibitors altered acinar morphogenesis of the basal-like (triple negative) breast epithelial cells and blocked survival of basal-like breast cancer cells in 3D organotypic culture. To evaluate whether CBFβ inhibition would influence the multicellular organization of basal-like breast epithelia, 3D culture of MCF10A-5E cells was used. Knockdown of RUNX1 in these cells delayed proliferation arrest and promoted the formation of nonspherical acini, indicating a role for RUNX1 during morphogenesis.
The multiacini resulting from CBFβ inhibition were not radially symmetric, thereby arguing against a general defect in cell polarity or proliferation arrest. Instead, the inhibitors appeared to be initiating a nascent branching program that is reminiscent of when TGFβ-family signaling is impaired.
FIG. 9A: MCF10A-5E cells stably expressing shRUNX1 or shGFP control were grown in 3D culture for 10-11 days with the indicated compounds and imaged by Brightfield microscopy. The total number of multiacini per chamber was counted and scaled to the shGFP DMSO control. Data are shown as the mean±SEM of eight independent cultures.

In assay [3] the test system is lung cancer cell lines. In words: MTT growth assay, several lung cancer cell lines. Type of assay: cell-based. Here is the method:
(§1) Activity of Al-10-104 was tested using several lung cancer cell lines and one immortalized, non-transformed lung cell line. […] Data for the squamous cell carcinoma of the lung cell line H520 and the immortalized normal lung epithelial cell line BEAS-2B are shown in FIG. 10.

In assay [4] the test system is T-ALL cell lines Jurkat, HBP-ALL, Loucy, and KOPTK1. In words: Proliferation of T-ALL cell lines. Format: cell-based, human.
The test system of assay [5] is H520 lung cancer cells. In words: MTT growth assay, H520 cells. Format: cell-based. Conditions: H520, 10 μM, 72 hrs. Here is the method:
as §1
H520 cells were cultured in RPMI 1640 medium, supplemented with fetal bovine serum (10% final concentration), Hepes (1%), and sodium priruvate (1%). The MTT assay used 4×10^5/ml cells. BEAS-2B cells were cultured in DMEM medium with fetal bovine serum (10% final concentration). The MTT assay for the BEAS-2B cell line was performed using 3.5×10^5/ml cells.
Al-4-88 had no effect on either cell line.

Assay [6] concerns OVCAR4 ovarian cancer cells. The assay can be described thus: CellTiter-Glo viability assay, OVCAR4. Format: cell-based. Conditions: Homo sapiens, OVCAR-4, OVCAR4, 72 hours. Here is the method:
OVCAR8 cells were grown in RPMI 1640 supplemented with 10% Fetal bovine serum and 1% antibiotics. OVCAR4 cells were grown in RPMI 1640 supplemented with 20% fetal bovine serum and 1% antibiotics. Cells growing at approximately 70% confluency were trypsinized and 2500 cells per well were re-plated in opaque bottomed 96-well plates.
24 hours after plating, chemical compounds diluted in DMSO were mixed with cell growth media and added to cells. Compounds mixed with media were made at 10× concentration. Cells treated with compounds were incubated for 72 hours in a humidified incubator at 37° C. supplemented with 5% CO2. Percentage of cells viable after 72 hours was determined by CellTitler-Glo according to the manufacturer's instructions. Data analysis was performed using GraphPad 5.0.
In the graph, the ordinate represents % inhibition and the abscissa represents the log value of the concentration of the compound.

`COc1cccnc1-c1nc2cc(OC(F)(F)F)ccc2[nH]1` [Al-10-104]: the apoptosis entry in assay [1] is listed as “induced apoptosis”. In addition, the “formation of multiacinar structures” value in assay [2] is reported as “dramatic increase”. In assay [3], the “growth inhibition (MTT assay)” value was “growth inhibition”. Moreover, the proliferation entry in assay [4] is listed as “inhibited proliferation”. Moreover, the “cell growth (MTT assay)” value in assay [5] is on record as “inhibited almost as effectively as 1 μM staurosporine”. The compound further displayed an IC50 in assay [6] of 5.86 µM.

The record behind these values is patent publication US10562890B2, “Cancer therapeutics” (UNIVERSITY OF VIRGINIA PATENT FOUNDATION, priority 2014, dated 2020).
